Measurements: ChEMBL document CHEMBL1201862, “PubChem BioAssay data set” (2004)
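Method: 48-hour compound exposure of cells in 96-well plates, five concentrations, linear interpolation of endpoints. GI50 = concentration required for 50% inhibition of growth.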 The source made the active and inactive calls. No stated cut-off is given here; in the data, active = GI50 up to about 1.1 µM and inactive = higher.

What was measured:
Test in all cases: NCI-60 cell line screen, 48 h
NCI-H23 = system: NCI-H23
NCI-H226 = system: NCI-H226
OVCAR-4 = system: OVCAR-4
OVCAR-3 = system: OVCAR-3
HCT-116 = system: HCT-116
HL-60 = system: HL-60
SK-MEL-2 = system: SK-MEL-2
M14 = system: M14
ACHN = system: ACHN
SW-620 = system: SW-620
NCI-H460 = system: NCI-H460
A549 = system: A549
RXF 393 = system: RXF 393
A498 = system: A498
KM12 = system: KM12
SF-295 = system: SF-295
SN12C = system: SN12C
RPMI-8226 = system: RPMI-8226

SMILES | GI50 (NCI-H23) | GI50 (NCI-H226) | GI50 (OVCAR-4) | GI50 (OVCAR-3) | GI50 (HCT-116) | GI50 (HL-60) | GI50 (SK-MEL-2) | GI50 (M14) | GI50 (ACHN) | GI50 (SW-620) | GI50 (NCI-H460) | GI50 (A549) | GI50 (RXF 393) | GI50 (A498) | GI50 (KM12) | GI50 (SF-295) | GI50 (SN12C) | GI50 (RPMI-8226)
CCOC(=O)c1c2ccc(/C=C/c3ccccc3)ccc-2c(C(=O)OCC)c1N | 32 µM (inactive) | > 100 µM (inactive) | 34.1 µM (inactive) | > 100 µM (inactive) | > 100 µM (inactive) | > 100 µM (inactive) | > 100 µM (inactive) | > 100 µM (inactive) | > 100 µM (inactive) | > 100 µM (inactive) | > 100 µM (inactive) | > 100 µM (inactive) | > 100 µM (inactive) | 36.1 µM (inactive) | 54.6 µM (inactive) | > 100 µM (inactive) |  | 
O=C(NCCCCCCNC(=O)NC1OCC(O)C(O)C1O)NC1OCC(O)C(O)C1O (configuration not stated) | > 100 µM (inactive) | > 100 µM (inactive) | > 100 µM (inactive) | > 100 µM (inactive) | > 100 µM (inactive) | > 100 µM (inactive) | > 100 µM (inactive) | > 100 µM (inactive) | > 100 µM (inactive) | > 100 µM (inactive) | > 100 µM (inactive) | > 100 µM (inactive) | > 100 µM (inactive) |  | > 100 µM (inactive) | > 100 µM (inactive) | > 100 µM (inactive) | > 100 µM (inactive)
COc1nc(NC2OC(COC(C)=O)C(OC(C)=O)C(OC(C)=O)C2OC(C)=O)c(/N=C/C=N/c2c(NC3OC(COC(C)=O)C(OC(C)=O)C(OC(C)=O)C3OC(C)=O)nc(OC)[nH]c2=O)c(=O)[nH]1 (configuration not stated) | > 100 µM (inactive) | > 100 µM (inactive) | > 100 µM (inactive) | > 100 µM (inactive) | > 100 µM (inactive) | > 100 µM (inactive) |  | > 100 µM (inactive) | > 100 µM (inactive) | > 100 µM (inactive) |  | > 100 µM (inactive) |  | > 100 µM (inactive) | > 100 µM (inactive) | > 100 µM (inactive) | > 100 µM (inactive) | > 100 µM (inactive)
NCCCNCCCCN(CCCN)/[N+]([O-])=N\O | > 100 µM (inactive) | > 100 µM (inactive) | > 100 µM (inactive) | > 100 µM (inactive) | > 100 µM (inactive) | > 100 µM (inactive) | > 100 µM (inactive) | > 100 µM (inactive) | > 100 µM (inactive) | > 100 µM (inactive) | > 100 µM (inactive) | > 100 µM (inactive) | > 100 µM (inactive) |  | > 100 µM (inactive) | > 100 µM (inactive) | > 100 µM (inactive) | 29.8 µM (inactive)
O=C(CC1S/C(=N\c2ccccc2Cl)NC1=O)Nc1ccc(Cl)cc1 (configuration not stated) | > 100 µM (inactive) |  | 38.9 µM (inactive) |  | > 100 µM (inactive) | 94.4 µM (inactive) | > 100 µM (inactive) | > 100 µM (inactive) | > 100 µM (inactive) | 10.6 µM (inactive) | > 100 µM (inactive) | > 100 µM (inactive) | > 100 µM (inactive) | > 100 µM (inactive) | > 100 µM (inactive) | > 100 µM (inactive) | > 100 µM (inactive) | 
O=C(CC(=O)C(=O)Nc1ccccc1)CC(c1ccccc1)c1c(O)c2ccccc2oc1=O (configuration not stated) |  | > 100 µM (inactive) |  | > 100 µM (inactive) | > 100 µM (inactive) | > 100 µM (inactive) | > 100 µM (inactive) | > 100 µM (inactive) | > 100 µM (inactive) | > 100 µM (inactive) | > 100 µM (inactive) | > 100 µM (inactive) | > 100 µM (inactive) | > 100 µM (inactive) | > 100 µM (inactive) | > 100 µM (inactive) |  | 
Cc1cc(C)c(C(=O)O)c(SSc2cc(C)cc(C)c2C(=O)O)c1 | > 100 µM (inactive) | > 100 µM (inactive) | > 100 µM (inactive) |  |  | > 100 µM (inactive) | > 100 µM (inactive) |  | > 100 µM (inactive) | > 100 µM (inactive) | > 100 µM (inactive) | > 100 µM (inactive) | > 100 µM (inactive) | > 100 µM (inactive) | > 100 µM (inactive) | > 100 µM (inactive) | > 100 µM (inactive) | 
CCOC(=O)C1=C(C)Nc2ccccc2S1 | > 100 µM (inactive) | > 100 µM (inactive) | > 100 µM (inactive) | > 100 µM (inactive) | > 100 µM (inactive) |  | > 100 µM (inactive) | > 100 µM (inactive) | > 100 µM (inactive) | > 100 µM (inactive) | > 100 µM (inactive) | > 100 µM (inactive) | 51.9 µM (inactive) | > 100 µM (inactive) | > 100 µM (inactive) | > 100 µM (inactive) | > 100 µM (inactive) | 48.3 µM (inactive)
CN(C)CCS/C(=N\c1ccccc1)n1cccc1 | 72.8 µM (inactive) | 22.3 µM (inactive) | > 100 µM (inactive) | > 100 µM (inactive) | > 100 µM (inactive) | 32.7 µM (inactive) | 44.7 µM (inactive) | > 100 µM (inactive) | 78.5 µM (inactive) | > 100 µM (inactive) | > 100 µM (inactive) | > 100 µM (inactive) | 27.1 µM (inactive) |  | 82.8 µM (inactive) | > 100 µM (inactive) | 54.1 µM (inactive) | > 100 µM (inactive)
C=C1C(OC(=O)/C=C/c2ccccc2)CC(OC(C)=O)C2(C)C1CC1CC(OC(C)=O)C(C)=C(C(OC(C)=O)C2OC(C)=O)C1(C)C (configuration not stated) |  | > 100 µM (inactive) |  |  | 3.79 µM (inactive) | 2.07 µM (inactive) |  | > 100 µM (inactive) |  | > 100 µM (inactive) | 6.67 µM (inactive) | 5.45 µM (inactive) |  | 31.6 µM (inactive) | 8.59 µM (inactive) | > 100 µM (inactive) | > 100 µM (inactive) | 3.13 µM (inactive)
Clc1cc(Cl)c2ns[s+]c2c1Cl | 0.132 µM (active) | > 100 µM (inactive) | > 100 µM (inactive) | > 100 µM (inactive) | > 100 µM (inactive) | > 100 µM (inactive) | > 100 µM (inactive) | > 100 µM (inactive) | > 100 µM (inactive) | > 100 µM (inactive) | > 100 µM (inactive) | > 100 µM (inactive) | > 100 µM (inactive) | > 100 µM (inactive) | > 100 µM (inactive) | > 100 µM (inactive) | > 100 µM (inactive) | 
CSc1nc(SC)c2c(C#N)n[nH]c2n1 | > 100 µM (inactive) | > 100 µM (inactive) | > 100 µM (inactive) | > 100 µM (inactive) |  |  | > 100 µM (inactive) | > 100 µM (inactive) | > 100 µM (inactive) | > 100 µM (inactive) | > 100 µM (inactive) | > 100 µM (inactive) | > 100 µM (inactive) | > 100 µM (inactive) | > 100 µM (inactive) | > 100 µM (inactive) | > 100 µM (inactive) | > 100 µM (inactive)
